Measurements published in ChEMBL document CHEMBL5465560, “Selectivity Literature for EUbOPEN Chemogenomic Library” (2024).

Key:
[1] = molecular target: Serine/threonine-protein kinase PAK 6 (Homo sapiens) (UniProt Q9NQU5); assay: Selectivity interaction (KinomeScan (DiscoverX)) EUB0001049a PAK6; details: at 1 µM
[2] = molecular target: Casein kinase II subunit alpha' (Homo sapiens) (UniProt P19784); assay: Selectivity interaction (KinomeScan (DiscoverX)) EUB0001079a CSNK2A2; details: at 1 µM
[3] = molecular target: Mitogen-activated protein kinase 1 (Homo sapiens, UniProt P28482); assay: Selectivity interaction (KinomeScan (DiscoverX)) EUB0001079a MAPK1; details: at 1 µM
[4] = molecular target: Tyrosine-protein kinase receptor UFO (Homo sapiens) (UniProt P30530); assay: Selectivity interaction (KinomeScan (DiscoverX)) EUB0000595a AXL; details: at 10 µM
[5] = molecular target: T1, Protein kinase C iota type (Homo sapiens) (UniProt P41743); assay: Selectivity interaction (KinomeScan (DiscoverX)) EUB0000595a PRKCI; details: at 10 µM
T1 sequence (whole entry): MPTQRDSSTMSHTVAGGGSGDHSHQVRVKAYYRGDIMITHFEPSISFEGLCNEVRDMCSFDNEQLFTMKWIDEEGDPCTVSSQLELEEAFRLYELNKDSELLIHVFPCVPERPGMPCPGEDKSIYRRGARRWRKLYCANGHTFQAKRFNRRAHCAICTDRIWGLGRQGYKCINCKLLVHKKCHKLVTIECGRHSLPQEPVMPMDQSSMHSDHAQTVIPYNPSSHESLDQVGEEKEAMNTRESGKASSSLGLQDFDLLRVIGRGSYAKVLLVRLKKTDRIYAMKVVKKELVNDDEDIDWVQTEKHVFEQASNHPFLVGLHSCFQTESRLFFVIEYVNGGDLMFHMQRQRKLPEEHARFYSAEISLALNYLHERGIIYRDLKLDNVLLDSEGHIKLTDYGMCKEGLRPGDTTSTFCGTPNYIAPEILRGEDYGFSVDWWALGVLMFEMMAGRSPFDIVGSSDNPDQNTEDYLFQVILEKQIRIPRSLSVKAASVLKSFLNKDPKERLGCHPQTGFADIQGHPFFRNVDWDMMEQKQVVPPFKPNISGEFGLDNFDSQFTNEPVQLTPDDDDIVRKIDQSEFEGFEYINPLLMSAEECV

[6] = test system: Epidermal growth factor receptor (Homo sapiens), P00533 [G719C]; details: at 10 µM
[7] = molecular target: T2, Inhibitor of nuclear factor kappa-B kinase subunit beta (Homo sapiens) (UniProt O14920); assay: Selectivity interaction (KinomeScan (DiscoverX)) EUB0000092b IKBKB; details: at 10 µM
T2 sequence (whole entry): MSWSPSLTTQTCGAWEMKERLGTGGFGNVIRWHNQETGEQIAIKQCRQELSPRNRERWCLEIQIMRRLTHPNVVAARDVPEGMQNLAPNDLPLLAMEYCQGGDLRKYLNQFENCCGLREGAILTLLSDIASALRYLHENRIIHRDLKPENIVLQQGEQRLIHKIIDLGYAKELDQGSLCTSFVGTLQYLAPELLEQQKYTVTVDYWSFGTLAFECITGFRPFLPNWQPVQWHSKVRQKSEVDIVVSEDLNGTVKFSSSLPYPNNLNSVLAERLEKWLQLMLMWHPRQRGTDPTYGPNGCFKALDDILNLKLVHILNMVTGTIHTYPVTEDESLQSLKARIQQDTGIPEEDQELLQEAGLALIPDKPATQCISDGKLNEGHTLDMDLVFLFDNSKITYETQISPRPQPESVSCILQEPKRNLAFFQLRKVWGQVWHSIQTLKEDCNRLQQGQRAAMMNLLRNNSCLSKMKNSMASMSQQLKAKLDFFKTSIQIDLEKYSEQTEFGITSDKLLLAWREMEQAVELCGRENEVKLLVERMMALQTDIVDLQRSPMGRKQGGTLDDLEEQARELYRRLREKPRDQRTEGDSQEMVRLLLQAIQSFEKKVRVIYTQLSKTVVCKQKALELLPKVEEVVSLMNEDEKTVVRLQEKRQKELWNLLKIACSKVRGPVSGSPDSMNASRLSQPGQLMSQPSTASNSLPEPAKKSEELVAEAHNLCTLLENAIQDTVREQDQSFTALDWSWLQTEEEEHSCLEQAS

[8] = molecular target: Non-receptor tyrosine-protein kinase TYK2 (Homo sapiens, UniProt P29597); assay: Selectivity interaction (KinomeScan (DiscoverX)) EUB0000092b TYK2; details: at 10 µM
[9] = molecular target: Cyclin-dependent kinase 5/CDK5 activator 1 (Homo sapiens) (UniProt Q00535+Q15078); assay: Selectivity interaction (SelectScreen profiling (Invitrogen)) EUB0000607a CDK5; assay type: protein-complex assay; details: at 2 µM
[10] = molecular target: T3, Serine/threonine-protein kinase BRSK1 (Homo sapiens) (UniProt Q8TDC3); assay: Selectivity interaction (ProQinase) EUB0000171b BRSK1
T3 sequence (whole entry): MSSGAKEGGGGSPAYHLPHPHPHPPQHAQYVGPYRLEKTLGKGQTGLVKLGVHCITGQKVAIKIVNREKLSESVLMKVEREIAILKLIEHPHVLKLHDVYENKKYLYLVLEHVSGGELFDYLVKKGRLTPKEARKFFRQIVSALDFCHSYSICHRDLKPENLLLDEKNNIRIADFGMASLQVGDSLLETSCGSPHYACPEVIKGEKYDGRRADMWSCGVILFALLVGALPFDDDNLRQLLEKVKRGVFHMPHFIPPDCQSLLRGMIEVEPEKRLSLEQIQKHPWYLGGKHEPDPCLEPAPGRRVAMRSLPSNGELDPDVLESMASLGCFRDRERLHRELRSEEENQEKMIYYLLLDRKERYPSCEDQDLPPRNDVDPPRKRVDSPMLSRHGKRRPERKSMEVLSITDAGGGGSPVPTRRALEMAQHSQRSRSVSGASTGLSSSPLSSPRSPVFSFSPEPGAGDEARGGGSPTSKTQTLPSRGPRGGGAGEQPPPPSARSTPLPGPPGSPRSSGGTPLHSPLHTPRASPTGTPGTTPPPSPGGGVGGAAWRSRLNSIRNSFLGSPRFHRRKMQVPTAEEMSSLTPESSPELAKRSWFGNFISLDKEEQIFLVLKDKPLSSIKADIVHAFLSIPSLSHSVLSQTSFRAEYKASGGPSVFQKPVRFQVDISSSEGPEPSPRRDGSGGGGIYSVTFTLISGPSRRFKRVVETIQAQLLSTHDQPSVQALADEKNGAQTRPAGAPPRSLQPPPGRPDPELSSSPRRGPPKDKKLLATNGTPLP

[11] = molecular target: Phosphatidylinositol 4-phosphate 5-kinase type-1 gamma (Homo sapiens) (UniProt O60331); assay: Selectivity interaction (ProQinase) EUB0000171b PIP5K1C; details: at 1 µM
Phosphatidylinositol 4-phosphate 5-kinase type-1 gamma (Homo sapiens), sequence (O60331 whole entry): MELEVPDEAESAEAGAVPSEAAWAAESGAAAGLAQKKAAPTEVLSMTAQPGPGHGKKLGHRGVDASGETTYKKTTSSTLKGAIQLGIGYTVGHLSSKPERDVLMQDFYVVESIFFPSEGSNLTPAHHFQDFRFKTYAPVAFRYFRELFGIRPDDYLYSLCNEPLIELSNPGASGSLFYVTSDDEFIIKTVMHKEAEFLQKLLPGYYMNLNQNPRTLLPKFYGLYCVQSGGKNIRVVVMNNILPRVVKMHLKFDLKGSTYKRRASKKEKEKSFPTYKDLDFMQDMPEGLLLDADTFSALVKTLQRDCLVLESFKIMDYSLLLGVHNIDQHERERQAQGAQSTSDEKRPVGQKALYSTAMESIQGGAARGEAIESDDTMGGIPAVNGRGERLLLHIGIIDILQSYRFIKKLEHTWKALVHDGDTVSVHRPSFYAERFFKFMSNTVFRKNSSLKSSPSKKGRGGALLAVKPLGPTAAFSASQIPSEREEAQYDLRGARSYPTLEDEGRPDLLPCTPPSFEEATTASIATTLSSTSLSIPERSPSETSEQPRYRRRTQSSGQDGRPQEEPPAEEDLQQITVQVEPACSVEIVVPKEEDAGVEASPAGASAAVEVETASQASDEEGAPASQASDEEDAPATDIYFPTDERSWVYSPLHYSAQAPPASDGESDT

Epidermal growth factor receptor (Homo sapiens), P00533 [G719C], sequence (P00533 whole entry G719C): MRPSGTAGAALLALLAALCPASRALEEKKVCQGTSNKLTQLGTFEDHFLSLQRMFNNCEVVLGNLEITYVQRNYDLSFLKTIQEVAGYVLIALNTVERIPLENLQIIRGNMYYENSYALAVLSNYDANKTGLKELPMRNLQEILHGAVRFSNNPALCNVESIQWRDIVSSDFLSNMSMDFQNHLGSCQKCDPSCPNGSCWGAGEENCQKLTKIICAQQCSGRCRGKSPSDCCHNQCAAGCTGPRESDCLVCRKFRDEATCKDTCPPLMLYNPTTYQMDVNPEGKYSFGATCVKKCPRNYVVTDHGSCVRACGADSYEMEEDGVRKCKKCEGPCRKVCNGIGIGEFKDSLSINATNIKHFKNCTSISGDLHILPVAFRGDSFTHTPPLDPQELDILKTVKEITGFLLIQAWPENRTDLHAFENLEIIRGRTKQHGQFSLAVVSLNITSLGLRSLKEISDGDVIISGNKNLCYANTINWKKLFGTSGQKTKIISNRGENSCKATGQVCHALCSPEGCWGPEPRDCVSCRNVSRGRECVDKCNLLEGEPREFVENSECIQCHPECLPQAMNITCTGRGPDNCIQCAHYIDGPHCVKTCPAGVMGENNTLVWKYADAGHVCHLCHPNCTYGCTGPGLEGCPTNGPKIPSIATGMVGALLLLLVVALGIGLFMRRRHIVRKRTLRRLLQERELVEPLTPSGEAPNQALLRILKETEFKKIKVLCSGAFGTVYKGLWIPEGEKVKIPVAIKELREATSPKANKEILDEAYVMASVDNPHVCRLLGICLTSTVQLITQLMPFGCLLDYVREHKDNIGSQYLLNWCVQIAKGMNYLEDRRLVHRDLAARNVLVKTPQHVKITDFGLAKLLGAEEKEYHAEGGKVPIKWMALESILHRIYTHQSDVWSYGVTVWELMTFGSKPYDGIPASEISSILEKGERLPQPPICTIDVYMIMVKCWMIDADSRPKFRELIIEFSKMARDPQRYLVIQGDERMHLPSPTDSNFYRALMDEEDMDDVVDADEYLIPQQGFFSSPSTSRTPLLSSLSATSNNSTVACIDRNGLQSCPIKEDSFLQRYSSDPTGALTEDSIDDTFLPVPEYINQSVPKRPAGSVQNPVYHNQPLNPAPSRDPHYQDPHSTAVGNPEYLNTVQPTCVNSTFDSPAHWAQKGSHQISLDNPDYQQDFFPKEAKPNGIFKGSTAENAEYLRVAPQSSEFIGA
Serine/threonine-protein kinase PAK 6 (Homo sapiens), sequence (Q9NQU5 whole entry, looked up): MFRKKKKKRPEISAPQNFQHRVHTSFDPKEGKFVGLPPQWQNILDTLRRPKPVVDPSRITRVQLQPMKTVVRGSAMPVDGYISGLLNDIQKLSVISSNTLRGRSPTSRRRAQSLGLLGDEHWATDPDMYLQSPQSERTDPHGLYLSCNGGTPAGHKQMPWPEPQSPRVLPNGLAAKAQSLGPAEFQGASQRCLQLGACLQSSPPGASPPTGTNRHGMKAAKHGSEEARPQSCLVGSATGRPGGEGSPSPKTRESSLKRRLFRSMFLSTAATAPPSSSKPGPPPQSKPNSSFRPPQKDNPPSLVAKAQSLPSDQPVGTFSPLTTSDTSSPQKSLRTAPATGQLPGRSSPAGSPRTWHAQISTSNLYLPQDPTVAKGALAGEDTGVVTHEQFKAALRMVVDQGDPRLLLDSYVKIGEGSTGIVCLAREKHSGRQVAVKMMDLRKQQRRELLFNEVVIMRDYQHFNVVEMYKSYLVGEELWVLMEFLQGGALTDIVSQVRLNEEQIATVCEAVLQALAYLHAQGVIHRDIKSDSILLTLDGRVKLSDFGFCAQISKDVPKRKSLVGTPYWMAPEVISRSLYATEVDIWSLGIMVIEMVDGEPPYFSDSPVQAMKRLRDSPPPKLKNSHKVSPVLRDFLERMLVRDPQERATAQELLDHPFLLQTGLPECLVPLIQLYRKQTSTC
Tyrosine-protein kinase receptor UFO (Homo sapiens), sequence (P30530 whole entry): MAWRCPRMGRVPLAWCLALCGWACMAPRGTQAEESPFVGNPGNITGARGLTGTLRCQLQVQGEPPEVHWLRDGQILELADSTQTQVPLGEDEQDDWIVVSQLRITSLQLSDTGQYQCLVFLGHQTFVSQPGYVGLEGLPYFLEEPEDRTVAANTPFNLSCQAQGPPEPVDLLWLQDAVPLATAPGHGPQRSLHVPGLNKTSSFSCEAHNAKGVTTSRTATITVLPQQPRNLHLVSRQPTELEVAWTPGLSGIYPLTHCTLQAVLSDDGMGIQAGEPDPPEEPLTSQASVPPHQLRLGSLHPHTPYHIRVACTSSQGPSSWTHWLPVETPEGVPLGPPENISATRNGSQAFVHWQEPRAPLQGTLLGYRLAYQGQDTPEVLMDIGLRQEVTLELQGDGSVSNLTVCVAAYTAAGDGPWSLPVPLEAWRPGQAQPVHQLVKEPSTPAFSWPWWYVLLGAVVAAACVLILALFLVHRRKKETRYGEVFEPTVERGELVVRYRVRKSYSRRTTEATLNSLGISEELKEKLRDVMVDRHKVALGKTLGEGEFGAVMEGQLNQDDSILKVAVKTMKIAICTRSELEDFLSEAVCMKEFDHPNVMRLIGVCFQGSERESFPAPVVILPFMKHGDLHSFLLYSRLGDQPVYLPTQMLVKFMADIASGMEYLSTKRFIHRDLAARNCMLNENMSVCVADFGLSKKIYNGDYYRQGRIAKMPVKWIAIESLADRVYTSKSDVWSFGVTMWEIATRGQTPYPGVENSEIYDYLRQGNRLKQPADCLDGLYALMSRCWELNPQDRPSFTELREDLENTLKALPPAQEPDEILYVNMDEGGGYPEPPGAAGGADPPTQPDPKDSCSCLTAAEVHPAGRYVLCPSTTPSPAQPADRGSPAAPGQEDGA
Cyclin-dependent kinase 5/CDK5 activator 1 (Homo sapiens), sequence (Q00535 whole entry): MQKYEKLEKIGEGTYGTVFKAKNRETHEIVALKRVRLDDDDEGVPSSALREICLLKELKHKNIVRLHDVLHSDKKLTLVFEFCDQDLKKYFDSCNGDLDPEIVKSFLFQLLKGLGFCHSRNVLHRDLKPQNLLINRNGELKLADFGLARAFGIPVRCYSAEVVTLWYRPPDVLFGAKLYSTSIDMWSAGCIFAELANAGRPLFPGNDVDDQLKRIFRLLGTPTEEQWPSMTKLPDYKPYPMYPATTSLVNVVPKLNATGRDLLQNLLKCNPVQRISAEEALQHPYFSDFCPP
Cyclin-dependent kinase 5/CDK5 activator 1 (Homo sapiens), sequence (Q15078 99-307 partner limits assumed): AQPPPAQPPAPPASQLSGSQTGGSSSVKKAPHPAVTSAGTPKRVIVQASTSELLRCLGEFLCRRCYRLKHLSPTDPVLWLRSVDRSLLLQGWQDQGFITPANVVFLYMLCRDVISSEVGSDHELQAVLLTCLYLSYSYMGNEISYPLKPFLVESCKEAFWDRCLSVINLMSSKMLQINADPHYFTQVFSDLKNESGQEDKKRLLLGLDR
Casein kinase II subunit alpha' (Homo sapiens), sequence (P19784 whole entry, looked up): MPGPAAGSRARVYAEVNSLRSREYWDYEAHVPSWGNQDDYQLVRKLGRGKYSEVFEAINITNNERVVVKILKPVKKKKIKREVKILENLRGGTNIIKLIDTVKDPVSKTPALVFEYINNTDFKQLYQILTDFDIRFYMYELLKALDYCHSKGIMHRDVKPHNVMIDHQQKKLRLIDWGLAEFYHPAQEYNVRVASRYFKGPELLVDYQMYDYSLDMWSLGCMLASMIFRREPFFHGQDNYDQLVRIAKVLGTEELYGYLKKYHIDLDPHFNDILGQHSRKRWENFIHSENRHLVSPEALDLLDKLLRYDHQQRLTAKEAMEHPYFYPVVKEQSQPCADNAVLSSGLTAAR
Mitogen-activated protein kinase 1, sequence (P28482 whole entry): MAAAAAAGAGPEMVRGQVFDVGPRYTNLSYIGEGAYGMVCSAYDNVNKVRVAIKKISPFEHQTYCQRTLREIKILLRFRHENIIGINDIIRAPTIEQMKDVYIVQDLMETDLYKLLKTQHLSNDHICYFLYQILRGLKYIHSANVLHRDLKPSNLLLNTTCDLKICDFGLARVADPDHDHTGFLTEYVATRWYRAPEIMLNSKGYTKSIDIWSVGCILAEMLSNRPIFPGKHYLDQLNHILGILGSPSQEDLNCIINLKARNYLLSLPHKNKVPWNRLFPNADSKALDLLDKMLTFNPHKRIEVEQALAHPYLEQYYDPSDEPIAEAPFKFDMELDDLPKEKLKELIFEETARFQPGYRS

`COc1cc(Nc2nc(C)cc(-c3cnn4nc(OC)ccc34)n2)cc(C(F)(F)F)c1` was tested, and the % of control [1] was 75%.
With `Nc1cnc(N2CCc3cc(S(=O)(=O)Nc4c(F)cc(Cl)cc4F)cc(N4CCCC4=O)c32)nc1` [TP-020n] the % of control [2] was 98% and the % of control [3] was 100%.
`COCC(=O)NC/C=C/c1ccc2ncnc(Nc3ccc(Oc4ccc(C)nc4)c(C)c3)c2c1` [CP-724714] showed a % of control [4] of 68%, a % of control [5] of 93% and a % of control [6] of 0%.
`CCC(=O)N1CCN(c2ccc(-n3c(=O)ccc4cnc5ccc(-c6cnc7ccccc7c6)cc5c43)cc2C(F)(F)F)CC1` showed a % of control [7] of 61% and a % of control [8] of 55%.
`CNC(=O)Nc1ccc(-c2nc(N3CC4CCC(C3)O4)c3cnn(C4CCC5(CC4)OCCO5)c3n2)cc1` gave a % of inhibition [9] of -4%.
`C=CC(=O)Nc1cccc(C(=O)Nc2ccc(Nc3cc(-c4[nH]c(SC)nc4C)ccn3)cc2)c1` gave a % of control ([10]; at 1 µM) of 107%, a % of control ([10]; at 5 µM) of 95% and a % of control [11] of 107%.
